Data reported in patent publication US20100248265A1, “COMPOSITIONS AND METHODS FOR DIAGNOSIS AND TREATMENT OF CANCER” (The Salk Institute for Biological Studies, priority 2009, published 2010).

Key:
mTOR [1] = molecular target: mTOR (Homo sapiens, UniProt P42345); experiment: Western blot for mTOR autophosphorylation at S2481 in cells treated with mTOR kinase inhibitors; assay type: cell-based; conditions: actively growing Hela and MDA-MB-468 cells; 1 h at 37° C.
Description: (§4) Whole cell lysates were then analyzed for mTOR phosphorylation at S2481. Phosphorylation of the mTORC1 substrate S6K at T389 and the mTORC2 substrate Akt at S473 were analyzed as controls.

Akt = experiment: Western blot for mTORC2 substrate Akt phosphorylated at S473 in cells treated with mTOR kinase inhibitors; conditions: 1 h at 37° C.
Description: as §4

mTOR [2] = experiment: Western blot for mTOR autophosphorylation at S2481 in cells treated with mTOR kinase inhibitors; assay type: cell-based; conditions: actively growing MEFs, U2OS, Hela and MDA-MB-468 cells; 1 h at 37° C.
Description: as §4

S6K = experiment: Western blot for mTORC1 substrate S6K phosphorylated at T389 in cells treated with mTOR kinase inhibitors; conditions: 1 h at 37° C.
Description: as §4

[3] = tested on: ER positive breast cancer; conditions: ER positive breast cancer patients; randomized trial, endocrine therapy plus everolimus; cited from earlier work
breast cancer = conditions: unselected breast cancer patients; cited from earlier work
mTOR [4] = experiment: Immunoblot of whole cell lysates for mTOR phosphorylated on S2481 (rapamycin / insulin treatment); assay type: cell-based; conditions: serum-starved HEK293 cells; 200 nM insulin for 5 min.
Description: Antibodies and reagents. The following antibodies were purchased from Cell Signaling Technology: phospho-mTOR(S2448 and S2481), Akt and phospho-Akt (S473) rabbit polyclonal antibodies. Phospho-S6K (T389) and mTOR (mTab1) rabbit polyclonal antibodies were purchased from Millipore. Rictor and mSin1 rabbit polyclonal antibodies were purchased from Bethyl Laboratories. The anti-Raptor rabbit antiserum was developed with the antibody service from Invitrogen utilizing the peptide [sequence], amino acid sequence 918-933 of human Raptor. Rapamycin was purchased from Sigma. Insulin and IGF-1 were purchased from Research Diagnostics, Inc.
Lentivirus-mediated gene knockdown. […]
Virus-containing supernatants were collected 48 hr. after transfection. Cells were infected twice in the presence of 1 μg/ml polybrene, selected for puromycin resistance and analyzed 48-72 hr. post-infection. […]

mTORC2 = molecular target: T1, mTORC2 (Homo sapiens, UniProt P42345+P62942); experiment: Rictor (and Raptor) immunoprecipitates analyzed by immunoblotting for bound mTOR (mTORC2 assembly); assay type: cell-based; conditions: serum-starved HEK293 cells; 200 nM insulin for 5 min.
T1 construct: endogenous in cells; host or cells: HEK293, U2OS, MDA-MB-231, MDA-MB-468, SKBR3, A549
Description: (§1) Antibodies and reagents. The following antibodies were purchased from Cell Signaling Technology: phospho-mTOR(S2448 and S2481), Akt and phospho-Akt (S473) rabbit polyclonal antibodies. Phospho-S6K (T389) and mTOR (mTab1) rabbit polyclonal antibodies were purchased from Millipore. Rictor and mSin1 rabbit polyclonal antibodies were purchased from Bethyl Laboratories. The anti-Raptor rabbit antiserum was developed with the antibody service from Invitrogen utilizing the peptide […], amino acid sequence 918-933 of human Raptor. Rapamycin was purchased from Sigma. Insulin and IGF-1 were purchased from Research Diagnostics, Inc.
(§2) Cell culture, cell lysis and immunoprecipitation. […]
(§3) Cells were rinsed 2× with cold PBS and lysed in 1 ml 50 mM Hepes pH 7.5, 150 mM NaCl, 10% glycerol, 0.3% Chaps (v/v), 1.5 mM MgCl2, 1 mM EGTA, 100 mM NaF, 500 μM sodium orthovanadate, 10 μg/ml aprotinin, and 10 μg/ml leupeptin per 10 cm tissue culture dish. […] Protein concentrations were determined using the Bio-Rad DC Protein Assay kit according to manufacturer's protocol. […]
Because S2481 phosphorylation requires intact mTORC2, we tested whether prolonged rapamycin treatment had any effect on S2481 phosphorylation. Whole cell lysates from control and insulin-stimulated cells treated with 100 nM rapamycin for either one or 24 hr were analyzed for phosphorylation of mTOR on S2448 and S2481. […]

mTOR [5] = molecular target: T2, mTOR (Homo sapiens, UniProt P42345+P62942); experiment: Immunoblot of whole cell lysates for mTOR phosphorylated on S2448 (rapamycin / insulin treatment); assay type: cell-based; conditions: serum-starved HEK293 cells; 200 nM insulin for 5 min.
T2 construct: specifically deplete endogenous mTOR, Rictor or Raptor were expressed in HEK293 cells; endogenous in cells
Description: as §1, §2, §3
Because S2481 phosphorylation requires intact mTORC2, we tested whether prolonged rapamycin treatment had any effect on S2481 phosphorylation. Whole cell lysates from control and insulin-stimulated cells treated with 100 nM rapamycin for either one or 24 hr were analyzed for phosphorylation of mTOR on S2448 and S2481.

[6] = actively growing Hela and MDA-MB-468 cells
[7] = actively growing MEFs, U2OS, Hela and MDA-MB-468 cells

| Molecule | phosphorylation of mTORC2 substrate Akt at S473 (Akt; [6]) | phosphorylation of mTORC2 substrate Akt at S473 (Akt; [7]) | mTOR autophosphorylation at S2481 (mTOR [2]) | phosphorylation of mTORC1 substrate S6K at T389 (S6K; [6]) | phosphorylation of mTORC1 substrate S6K at T389 (S6K; [7]) | further results |
| --- | --- | --- | --- | --- | --- | --- |
| COc1ccc2c(c1OC)N=C(NC(=O)c1cccnc1)N1CCN=C21 [PIK-90] | – | – | – | – | – | mTOR autophosphorylation at S2481 (mTOR [1]): reduction |
| CC(C)n1nc(-c2cc3cc(O)ccc3[nH]2)c2c(N)ncnc21 [PP242] | inhibited | inhibited | abolished | inhibited | inhibited | – |
| CCC(=O)N1CCN(c2ccc(-n3c(=O)ccc4cnc5ccc(-c6cnc7ccccc7c6)cc5c43)cc2C(F)(F)F)CC1 [Torin1] | inhibited | inhibited | abolished | inhibited | inhibited | – |
| CO[C@H]1C[C@@H]2CC[C@@H](C)[C@@](O)(O2)C(=O)C(=O)N2CCCC[C@H]2C(=O)O[C@H]([C@H](C)C[C@@H]2CC[C@@H](OCCO)[C@H](OC)C2)CC(=O)[C@H](C)/C=C(\C)[C@@H](O)[C@@H](OC)C(=O)[C@H](C)C[C@H](C)/C=C/C=C/C=C/1C [everolimus] | – | – | – | – | – | effect on efficacy of endocrine therapy [3]: significantly increases the efficacy of endocrine therapy |
| CO[C@H]1C[C@@H]2CC[C@@H](C)[C@@](O)(O2)C(=O)C(=O)N2CCCC[C@H]2C(=O)O[C@H]([C@H](C)C[C@@H]2CC[C@@H](OC(=O)C(C)(CO)CO)[C@H](OC)C2)CC(=O)[C@H](C)/C=C(\C)[C@@H](O)[C@@H](OC)C(=O)[C@H](C)C[C@H](C)/C=C/C=C/C=C/1C [temsirolimus] | – | – | – | – | – | patients who responded to treatment (breast cancer): 10% |
| insulin: growth factor used to stimulate serum-starved cells; purchased from Research Diagnostics, Inc. | – | – | – | – | – | S2481 phosphorylation of mTOR (mTOR [4]): increased; amount of mTOR associated with either Raptor or Rictor (mTORC2): did not change; S2448 phosphorylation of mTOR (mTOR [5]): increased |
